Measured values reported in patent US20240018120A1, “MAGL INHIBITORS” (H. LUNDBECK A/S, priority 2020, published 2024).

Assays:
MAGL [1] = biological target: T1, MAGL (Homo sapiens, UniProt Q99685); test: In vitro competitive substrate hydrolysis enzyme activity assay (pNPA), HEK293 cell lysates; format: biochemical; design: expressed in transfected cells; host or cells: HEK293; details: HEK293 lysate
T1 sequence (Q99685 1-303): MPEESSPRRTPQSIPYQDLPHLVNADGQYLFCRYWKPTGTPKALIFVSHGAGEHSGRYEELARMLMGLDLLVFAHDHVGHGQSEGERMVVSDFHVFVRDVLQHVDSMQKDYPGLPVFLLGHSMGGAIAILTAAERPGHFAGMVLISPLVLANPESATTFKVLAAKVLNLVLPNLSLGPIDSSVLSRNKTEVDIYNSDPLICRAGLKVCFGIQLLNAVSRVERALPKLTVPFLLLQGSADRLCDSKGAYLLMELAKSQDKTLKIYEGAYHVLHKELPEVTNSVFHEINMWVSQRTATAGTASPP
Method: HEK293 cell lysates expressing recombinant human MAGL enzyme and 4-nitrophenyl acetate (pNPA) substrate were diluted separately in 50 mM HEPES (pH 7.0) containing 200 mM KCl and 1 mM EDTA. Lysates (50 μL, ˜1.2 μg total protein) were preincubated with varying concentrations of inhibitors at 25° C. After 30 min, 2×pNPA substrate (50 μL, 2.5 mM) was added and the rate of substrate turnover was monitored by measuring the increase in absorbance at wavelength 405 nm for 20 minutes at 25° C. using a Biotek Neo2 plate reader. The mean velocity was converted to percent enzyme activity following background subtraction and normalization to DMSO controls. IC50 values were determined by fitting percent enzyme activities to a non-linear regression, 4-parameter, sigmoidal dose response function in Prism GraphPad.

MAGL [2] = biological target: T1, MAGL; test: In vitro competitive activity-based protein profiling, PC3 human cell membrane proteomes; format: biochemical; design: endogenous in cells; host or cells: PC3 human cells (membrane proteome); details: human PC3 membrane proteome; for inhibition at 1 µM: read-out: MAGL % inh. 1 μM (human PC3)
Summary of the method: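 Competitive ABPP in PC3 membrane proteome (2.0 mg/mL protein): inhibitors preincubated 30 min at 37° C, then JW912-Bodipy probe added for 30 min at room temperature. MAGL band fluorescence after SDS-PAGE normalised to DMSO; IC50 from 4-parameter sigmoidal fit.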

[3] = system: cryopreserved human hepatocytes; test: In vitro human hepatocyte stability; format: in vitro ADME; details: human hepatocytes 0.5×10^6 cells/mL, 1 μM
Method: The metabolic stability of test articles (1 μM) in commercially sourced, pooled donor, cryopreserved human hepatocytes (0.5×10^6 cells/mL) was determined in duplicate. The CLint reactions (250 μL) were initiated by addition of test compound. Aliquots (25 μL) were taken at 0, 15, 30, 45, 60, 90, 120 and 240 minutes and then protein crashed with ice-cold acetonitrile containing internal standard then centrifuged (3220 g for 25 minutes). Supernatant was used for LC-MS/MS analysis. The in vitro half-life (in vitro t½) was determined from the slope value: in vitro t1/2=−0.693/k. Conversion of the in vitro t1/2 (in min) into the scale-up unbound intrinsic clearance (Scaled-up unbound CLint, in mL/min/kg) was done using the following equation (mean of duplicate determinations), with data shown in Table 5: Scaled-up unbound CLint=kV/N×scaling factor. V=incubation volume (0.25 mL); N=number of hepatocytes per well ([…]). Scaling factors for in vivo intrinsic clearance prediction are listed below: […]

O=C(OC(C(F)(F)F)C(F)(F)F)N1CCC2(CC1)CC2C(=O)N1CCc2ncncc2C1 (single isomer, unassigned) [Example 60, 1,1,1,3,3,3-hexafluoropropan-2-yl (R or S)-1-(5,6,7,8-tetrahydropyrido[4,3-d]pyrimidine-6-carbonyl)-6-azaspiro[2.5]octane-6-carboxylate]
IC50 (MAGL [1]): 0.0854 µM
IC50 (MAGL [2]): 0.036 µM

O=C(OC(C(F)(F)F)C(F)(F)F)N1CCC2(CC1)CC2C(=O)N1CCc2nc(C3CC3)ncc2C1 (single isomer, unassigned) [Example 63, 1,1,1,3,3,3-hexafluoropropan-2-yl (R or S)-1-(2-cyclopropyl-5,6,7,8-tetrahydropyrido[4,3-d]pyrimidine-6-carbonyl)-6-azaspiro[2.5]octane-6-carboxylate]
IC50 (MAGL [1]): 0.0169 µM
inhibition at 1 µM (MAGL [2]): 100%
IC50 (MAGL [2]): 0.007 µM

O=C(Nc1cncc(Cl)c1)C1CC12CCN(C(=O)OC(C(F)(F)F)C(F)(F)F)CC2 (single isomer, unassigned) [Example 66, 1,1,1,3,3,3-hexafluoropropan-2-yl (R or S)-1-((5-chloropyridin-3-yl)carbamoyl)-6-azaspiro[2.5]octane-6-carboxylate]
IC50 (MAGL [1]): 0.00102 µM
inhibition at 1 µM (MAGL [2]): 100%
IC50 (MAGL [2]): 0.0042 µM

O=C(Nc1cccc(C(F)(F)F)n1)C1CC12CCN(C(=O)OC(C(F)(F)F)C(F)(F)F)CC2 (single isomer, unassigned) [Example 72, 1,1,1,3,3,3-hexafluoropropan-2-yl (R or S)-1-((6-(trifluoromethyl)pyridin-2-yl)carbamoyl)-6-azaspiro[2.5]octane-6-carboxylate]
IC50 (MAGL [1]): 0.00617 µM
inhibition at 1 µM (MAGL [2]): 100%

O=C(NCc1cccc(C(F)(F)F)n1)C1CC12CCN(C(=O)OC(C(F)(F)F)C(F)(F)F)CC2 (single isomer, unassigned) [Example 75, 1,1,1,3,3,3-hexafluoropropan-2-yl (R or S)-1-(((6-(trifluoromethyl)pyridin-2-yl)methyl)carbamoyl)-6-azaspiro[2.5]octane-6-carboxylate]
IC50 (MAGL [1]): 0.00911 µM
inhibition at 1 µM (MAGL [2]): 100%

O=C(NCc1cccc(C(F)(F)F)n1)C1CC12CCN(C(=O)OC(C(F)(F)F)C(F)(F)F)CC2 (single isomer, unassigned) [Example 76, 1,1,1,3,3,3-hexafluoropropan-2-yl (R or S)-1-(((6-(trifluoromethyl)pyridin-2-yl)methyl)carbamoyl)-6-azaspiro[2.5]octane-6-carboxylate]
IC50 (MAGL [1]): 0.00241 µM
IC50 (MAGL [2]): 0.0035 µM

O=C(Nc1ccc(C(F)(F)F)nc1)C1CC12CCN(C(=O)OC(C(F)(F)F)C(F)(F)F)CC2 (single isomer, unassigned) [Example 78, 1,1,1,3,3,3-hexafluoropropan-2-yl (R or S)-1-((6-(trifluoromethyl)pyridin-3-yl)carbamoyl)-6-azaspiro[2.5]octane-6-carboxylate]
IC50 (MAGL [1]): 0.00299 µM
IC50 (MAGL [2]): 0.008 µM

Cc1ccc(NC(=O)C2CC23CCN(C(=O)OC(C(F)(F)F)C(F)(F)F)CC3)cn1 (single isomer, unassigned) [Example 81, 1,1,1,3,3,3-hexafluoropropan-2-yl (R or S)-1-((6-methylpyridin-3-yl)carbamoyl)-6-azaspiro[2.5]octane-6-carboxylate]
IC50 (MAGL [1]): 0.000864 µM
inhibition at 1 µM (MAGL [2]): 100%
IC50 (MAGL [2]): 0.00087 µM

O=C(Nc1cccnc1C(F)(F)F)C1CC12CCN(C(=O)OC(C(F)(F)F)C(F)(F)F)CC2 (single isomer, unassigned) [Example 84, 1,1,1,3,3,3-hexafluoropropan-2-yl (R or S)-1-((2-(trifluoromethyl)pyridin-3-yl)carbamoyl)-6-azaspiro[2.5]octane-6-carboxylate]
IC50 (MAGL [1]): 0.0101 µM
inhibition at 1 µM (MAGL [2]): 100%
IC50 (MAGL [2]): 0.0089 µM

O=C(Nc1cccnc1C(F)(F)F)C1CC12CCN(C(=O)OC(C(F)(F)F)C(F)(F)F)CC2 (single isomer, unassigned) [Example 85, 1,1,1,3,3,3-hexafluoropropan-2-yl (R or S)-1-((2-(trifluoromethyl)pyridin-3-yl)carbamoyl)-6-azaspiro[2.5]octane-6-carboxylate]
IC50 (MAGL [1]): 0.167 µM
IC50 (MAGL [2]): 0.099 µM

O=C(NCc1cccnc1)C1CC12CCN(C(=O)OC(C(F)(F)F)C(F)(F)F)CC2 (single isomer, unassigned) [Example 87, 1,1,1,3,3,3-hexafluoropropan-2-yl (R or S)-1-((pyridin-3-ylmethyl)carbamoyl)-6-azaspiro[2.5]octane-6-carboxylate]
IC50 (MAGL [1]): 0.463 µM
inhibition at 1 µM (MAGL [2]): 100%
IC50 (MAGL [2]): 0.2 µM

O=C(NCc1cccnc1)C1CC12CCN(C(=O)OC(C(F)(F)F)C(F)(F)F)CC2 (single isomer, unassigned) [Example 88, 1,1,1,3,3,3-hexafluoropropan-2-yl (R or S)-1-((pyridin-3-ylmethyl)carbamoyl)-6-azaspiro[2.5]octane-6-carboxylate]
IC50 (MAGL [1]): 0.0718 µM
IC50 (MAGL [2]): 0.0325 µM

O=C(NC(=O)C1CC12CCN(C(=O)OC(C(F)(F)F)C(F)(F)F)CC2)C1CCCCC1 (single isomer, unassigned) [Example 90, 1,1,1,3,3,3-hexafluoropropan-2-yl (R or S)-1-((cyclohexanecarbonyl)carbamoyl)-6-azaspiro[2.5]octane-6-carboxylate]
IC50 (MAGL [1]): 0.00579 µM
inhibition at 1 µM (MAGL [2]): 100%
IC50 (MAGL [2]): 0.0047 µM

O=C(NC(=O)C1CC12CCN(C(=O)OC(C(F)(F)F)C(F)(F)F)CC2)C1CCCCC1 (single isomer, unassigned) [Example 91, 1,1,1,3,3,3-hexafluoropropan-2-yl (R or S)-1-((cyclohexanecarbonyl)carbamoyl)-6-azaspiro[2.5]octane-6-carboxylate]
IC50 (MAGL [1]): 0.00599 µM
IC50 (MAGL [2]): 0.0037 µM

O=C(NC(=O)C1CC12CCN(C(=O)OC(C(F)(F)F)C(F)(F)F)CC2)c1ccccc1 (single isomer, unassigned) [Example 93, 1,1,1,3,3,3-hexafluoropropan-2-yl (R or S)-1-(benzoylcarbamoyl)-6-azaspiro[2.5]octane-6-carboxylate]
IC50 (MAGL [1]): 0.00284 µM
inhibition at 1 µM (MAGL [2]): 100%

O=C(NC(=O)C1CC12CCN(C(=O)OC(C(F)(F)F)C(F)(F)F)CC2)c1ccccc1 (single isomer, unassigned) [Example 94, 1,1,1,3,3,3-hexafluoropropan-2-yl (R or S)-1-(benzoylcarbamoyl)-6-azaspiro[2.5]octane-6-carboxylate]
IC50 (MAGL [1]): 0.00323 µM
IC50 (MAGL [2]): 0.0051 µM

O=C(Nc1cncnc1)C1CC12CCN(C(=O)OC(C(F)(F)F)C(F)(F)F)CC2 (single isomer, unassigned) [Example 97, 1,1,1,3,3,3-hexafluoropropan-2-yl (R or S)-1-(pyrimidin-5-ylcarbamoyl)-6-azaspiro[2.5]octane-6-carboxylate]
IC50 (MAGL [1]): 1.38 µM
IC50 (MAGL [2]): 0.2 µM

O=C(Nc1cnc(C(F)(F)F)nc1)C1CC12CCN(C(=O)OC(C(F)(F)F)C(F)(F)F)CC2 (single isomer, unassigned) [Example 99, 1,1,1,3,3,3-hexafluoropropan-2-yl (R or S)-1-((2-(trifluoromethyl)pyrimidin-5-yl)carbamoyl)-6-azaspiro[2.5]octane-6-carboxylate]
IC50 (MAGL [1]): 0.00552 µM
IC50 (MAGL [2]): 0.0097 µM

O=C(Nc1cncs1)C1CC12CCN(C(=O)OC(C(F)(F)F)C(F)(F)F)CC2 (single isomer, unassigned) [Example 129, 1,1,1,3,3,3-hexafluoropropan-2-yl (R or S)-1-(thiazol-5-ylcarbamoyl)-6-azaspiro[2.5]octane-6-carboxylate]
Scaled-up unbound CLint [3]: 53.56 mL/min/kg

O=C(Nc1cccnn1)[C@@H]1CC12CCN(C(=O)OC(C(F)(F)F)C(F)(F)F)CC2 [Example 5, 1,1,1,3,3,3-Hexafluoropropan-2-yl (R)-1-(pyridazin-3-ylcarbamoyl)-6-azaspiro[2.5]octane-6-carboxylate]
IC50 (MAGL [1]): 0.553 µM
inhibition at 1 µM (MAGL [2]): 100%
IC50 (MAGL [2]): 0.18 µM
